The values below come from patent US20230255881A1, “METHOD OF RAPIDLY ACHIEVING THERAPEUTIC CONCENTRATIONS OF TRIPTANS FOR TREATMENT OF MIGRAINES AND CLUSTER HEADACHES” (Emergex USA Corporation, priority 2017, published 2023).

A word on the Tmax: it is the time at which the peak concentration occurs. What is called Cmax is the maximum level reached in the sampled fluid or tissue. A word on the AUC(0-t): it is exposure summed from dosing to a finite time, without extrapolation to infinity. A low value points to less exposure. In general, Solubility refers to the concentration that dissolves in the medium under given conditions.

Data set [1] deals with 5HT1B/1D. Conditions: relative to zolmitriptan; cited from earlier work.
For data set [2] the following is noted: cited from earlier work; for AUC0-last: Seaber1997.
Data set [3] in a line: clinical. Conditions: human, in vivo. The procedure: The final treatment administered was 3.8 mg on a 10 cm^2 patch using an applicator with 0.52 Joule of application energy in the intracutaneous microneedle system described herein. The products tested were:
(§1) The array was applied to the center of a 5 cm^2 tan adhesive backing to form the patch. The patch was attached to the interior of a white to off-white polycarbonate ring co-molded with a desiccant, and this patch assembly was packaged in a foil pouch.
as §1
The array was applied to the center of a 10 cm^2 tan adhesive backing to form the patch. The patch was attached to the interior of a white to off-white polycarbonate ring co-molded with a desiccant, and this patch assembly was packaged in a foil pouch.
This was a single-center, open-label, randomized five-way crossover study (Part 1) followed by a sequential study of two additional treatments (Parts 2 and 3). After obtaining informed consent and establishing eligibility, each subject received each of the seven study treatments once, followed by in-clinic monitoring and extensive blood sample collection for pharmacokinetic analysis. […] Plasma samples from the initial dosing days were sent to the analytical laboratory for analysis, and tolerability for each of the dose levels was summarized. […] During Part 3, subjects received a single 3.8 mg patch (applied with a 0.52 J applicator) and also completed identical procedures to the previous dosing days. After completion of the seven dosing days, subjects were assessed one final time and dismissed from the study.
Twenty subjects were enrolled in the study, 10 males and 10 females. The subjects mean age was 29 years±3.5 years with a mean BMI of 24.4±3.5.
PK parameters were summarized by treatment group using descriptive statistics (arithmetic means, standard deviations, coefficients of variation, sample size, minimum, maximum, and median).
Graphs of apparent dose linearity and proportionality of PK parameters (AUCt, AUCinf and Cmax) were compiled.

Data set [4] is described as follows: In vivo pig study: zolmitriptan distribution in skin by quantitative mass-spectrometry imaging. Conditions: swine skin after 1-hour ADAM wear. From the text:
Evidence of zolmitriptan diffusion within the skin was obtained by quantitative mass-specetrometry imaging. Analyses of the surface area of the stratum corneum, epidermis, and dermis indicate that the largest amount of zolmitriptan localized to the dermis.

The nature of data set [5]: Solubility of zolmitriptan in 0.1 M acids at 2-8° C. The class given is physicochemical. Conditions: de-ionized water. An excerpt: The suspension was then centrifuged.

Each structure is given as a SMILES string. ≈ marks a conversion by molar mass, not a printed value. Like-named read-outs stand apart in the source and are kept apart here.

On to `CNCCc1c[nH]c2ccc(C[C@H]3COC(=O)N3)cc12` [N-desmethyl zolmitriptan], for which the “5HT1B/1D potency, times that of the parent” value in data set [1] is 2 to 6 times. In addition, the “metabolite concentrations relative to zolmitriptan” value in data set [2] (after zolmitriptan administration) is given as “about two-thirds”.
`CN(C)CCc1c[nH]c2ccc(C[C@H]3COC(=O)N3)cc12` [Oral Zolmi]: in data set [3] (po, 2.5 mg), the AUC0-last Dose amounted to 8.6 ng·h/mL/mg.
For `CNS(=O)(=O)Cc1ccc2[nH]cc(CCN(C)C)c2c1` [SC Suma], in data set [3] (sc, 6 mg), the AUC0-last Dose amounted to 16.8 ng·h/mL/mg.
Compound `CNS(=O)(=O)Cc1ccc2[nH]cc(CCN(C)C)c2c1` [Sumatriptan SC] returned a t1/2 in data set [3] (sc) of 1.14 H.
As for `CNS(=O)(=O)Cc1ccc2[nH]cc(CCN(C)C)c2c1` [Sumatriptan], the Tmax result in data set [2] (marketed dosage form) is on record as “about 2 hours”. The bioavailability entry in data set [2] (oral administration) is recorded as “about 15%”.
On to `CN(C)CCc1c[nH]c2ccc(C[C@H]3COC(=O)N3)cc12` [Zolmitriptan 10 mg oral, zolmitriptan], for which the AUC0-last is 108.6 ng·h/mL in data set [2] (females (F)) and 84.4 ng·h/mL in data set [2] (males (M)).
Turning to `CN(C)CCc1c[nH]c2ccc(C[C@H]3COC(=O)N3)cc12` [Zolmitriptan oral tablet], in data set [3] (both, po, 2.5 mg), the AUCinf came to 27.19 ng · H/mL, the Cmax was found to be 3.77 ng/mL and the Tmax was 1.79 h. In data set [3] (both, po, 2.5 mg, AUC2 hrs), the AUC(0-t) came out at 4.72 ng·h/mL. Besides, in data set [3] (both, po, 2.5 mg, AUCt), the exposure AUC(0-t) is 22.2 ng·h/mL.
Turning to `CN(C)CCc1c[nH]c2ccc(C[C@H]3COC(=O)N3)cc12` [Zolmitriptan, zolmitriptan], the “Percentage of Total Zolmitriptan” value in data set [4] (Dermis/hypodermis) was determined as 95.5; in data set [4] (Epidermis) it was 2.7; in data set [4] (Stratum corneum), 1.8. For the same compound, in data set [5], the Solubility is 1300 µg/mL (≈ 4.52 mM).
